Data published in BindingDB's records for doi:10.1074/jbc.M114.571216 (Dalhousie University, 2014).
pKd: −log10 of the molar value.

Tests used:
[1] = target: T1, Oxysterol-binding protein 2 (Homo sapiens, UniProt Q969R2); experiment: Sterol-Binding Assay; conditions: pH 7.4; 20 °C
T1 sequence (Q969R2 whole entry): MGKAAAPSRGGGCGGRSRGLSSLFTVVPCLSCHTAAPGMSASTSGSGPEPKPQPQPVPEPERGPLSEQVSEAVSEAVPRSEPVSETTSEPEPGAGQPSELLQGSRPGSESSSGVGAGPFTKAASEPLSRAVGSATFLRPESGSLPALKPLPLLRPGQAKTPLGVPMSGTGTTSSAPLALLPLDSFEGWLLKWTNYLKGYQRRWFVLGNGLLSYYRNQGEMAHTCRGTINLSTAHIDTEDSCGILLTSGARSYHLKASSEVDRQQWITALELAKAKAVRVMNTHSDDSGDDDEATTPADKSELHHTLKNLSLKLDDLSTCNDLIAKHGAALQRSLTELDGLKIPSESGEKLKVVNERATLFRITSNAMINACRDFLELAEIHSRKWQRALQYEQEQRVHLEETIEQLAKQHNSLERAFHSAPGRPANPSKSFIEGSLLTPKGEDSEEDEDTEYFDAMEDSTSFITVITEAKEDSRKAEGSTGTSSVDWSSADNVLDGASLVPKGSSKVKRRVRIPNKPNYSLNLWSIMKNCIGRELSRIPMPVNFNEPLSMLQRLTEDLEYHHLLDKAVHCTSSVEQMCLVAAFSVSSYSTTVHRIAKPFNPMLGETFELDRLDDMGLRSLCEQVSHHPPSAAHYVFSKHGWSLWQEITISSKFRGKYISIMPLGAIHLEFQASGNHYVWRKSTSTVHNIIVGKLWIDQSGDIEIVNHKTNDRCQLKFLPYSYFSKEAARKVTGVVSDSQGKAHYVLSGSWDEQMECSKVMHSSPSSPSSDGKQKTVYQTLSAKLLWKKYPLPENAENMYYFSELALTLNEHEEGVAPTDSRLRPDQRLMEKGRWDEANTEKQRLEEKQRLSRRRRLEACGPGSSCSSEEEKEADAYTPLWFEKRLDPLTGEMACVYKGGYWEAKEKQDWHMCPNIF
Procedure: (§1) Recombinant OSBP, ORP4L, or ORP4S (8 pmol) was incubated in 75 μl of binding buffer (10 mM HEPES (pH 7.4), 150 mM KCl, 2% (w/v) polyvinyl alcohol) containing radioactive sterols (with or without a 40-fold excess of unlabeled sterol). After 2 h at 20 °C, a 25-μl slurry of Talon resin (1:1, v/v) was added and mixed for 10 min. Talon resin and bound protein were washed three times with 300 μl of 10 mM HEPES (pH 7.4) and 150 mM KCl and sedimented by brief centrifugation. Bound proteins were eluted from the resin with 150 mM imidazole (pH 7.4), the resin was sedimented by centrifugation, and radioactivity bound to protein in the supernatant was measured by liquid scintillation counting.

[2] = target: T2, Oxysterol-binding protein 2 [1-181,275-916] (Homo sapiens, UniProt Q969R2); experiment: Sterol-Binding Assay; conditions: pH 7.4; 20 °C
T2 construct: 1-181,275-916
T2 sequence (Q969R2 whole entry): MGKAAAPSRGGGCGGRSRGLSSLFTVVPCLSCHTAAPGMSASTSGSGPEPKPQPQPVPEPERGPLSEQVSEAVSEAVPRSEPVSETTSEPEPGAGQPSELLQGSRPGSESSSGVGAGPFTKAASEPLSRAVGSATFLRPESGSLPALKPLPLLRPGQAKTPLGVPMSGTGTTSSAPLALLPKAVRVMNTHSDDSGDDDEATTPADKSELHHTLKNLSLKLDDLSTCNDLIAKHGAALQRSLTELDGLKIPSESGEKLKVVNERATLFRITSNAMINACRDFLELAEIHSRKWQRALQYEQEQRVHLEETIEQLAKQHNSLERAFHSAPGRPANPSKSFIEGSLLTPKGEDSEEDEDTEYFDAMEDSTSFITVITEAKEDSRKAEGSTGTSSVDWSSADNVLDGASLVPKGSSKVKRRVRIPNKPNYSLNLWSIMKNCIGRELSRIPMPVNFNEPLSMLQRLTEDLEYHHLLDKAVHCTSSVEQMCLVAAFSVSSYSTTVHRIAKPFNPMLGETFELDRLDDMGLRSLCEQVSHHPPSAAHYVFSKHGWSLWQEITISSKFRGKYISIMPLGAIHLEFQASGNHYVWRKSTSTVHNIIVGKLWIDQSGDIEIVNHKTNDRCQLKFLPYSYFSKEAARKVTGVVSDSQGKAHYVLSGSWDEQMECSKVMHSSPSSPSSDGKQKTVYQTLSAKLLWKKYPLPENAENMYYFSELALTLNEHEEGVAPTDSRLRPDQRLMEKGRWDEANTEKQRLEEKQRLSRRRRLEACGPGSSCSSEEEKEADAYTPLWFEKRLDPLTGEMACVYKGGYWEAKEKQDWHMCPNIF
Procedure: as §1

Structure (SMILES) | pKd [1] | pKd [2]
CC(C)CCC[C@@H](C)[C@H]1CC[C@H]2[C@@H]3CC=C4C[C@@H](O)CC[C@]4(C)[C@H]3CC[C@]12C [(1S,2R,5S,10S,11S,14R,15R)-2,15-dimethyl-14-[(2R)-6-methylheptan-2-yl]tetracyclo[8.7.0.0^{2,7}.0^{11,15}]heptadec-7-en-5-ol] | 7.17 | 7.22
C[C@H](CCCC(C)(C)O)[C@H]1CC[C@H]2[C@@H]3CC=C4C[C@@H](O)CC[C@]4(C)[C@H]3CC[C@]12C [(1S,2R,5S,10S,11S,14R,15R)-14-[(2R)-6-hydroxy-6-methylheptan-2-yl]-2,15-dimethyltetracyclo[8.7.0.0^{2,7}.0^{11,15}]heptadec-7-en-5-ol] | 7.77 | 7.64
